Values joined by “and” are separate entries in the source; they are usually repeats but may differ in a detail not shown here. Equal values may be shown once. Inconclusive results are not listed.
Test system: CD8F1 mice, subcutaneous mammary adenocarcinoma, T/C%
Experiment: NCI In Vivo Anticancer Drug Screen. Data for tumor model Mammary Adenocarcinoma CD8F1 (subcutaneous) in CD8F1
Conditions: higher = larger tumour
Method in brief: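 Ratio of treated to vehicle-control outcome, based on either survival or tumor size, in mice bearing transplantable tumors given the test compound.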

[1] = endpoint: median tumor weight change, dose: 31.25 mg/kg/injection, schedule: Q01DX001 (ip), vehicle: Klucel (hydroxypropylcellulose) (HPC)
[2] = endpoint: median tumor weight change, dose: 62.5 mg/kg/injection, schedule: Q01DX001 (ip), vehicle: Klucel (hydroxypropylcellulose) (HPC)
[3] = endpoint: median tumor weight change, dose: 125.0 mg/kg/injection, schedule: Q01DX001 (ip), vehicle: Klucel (hydroxypropylcellulose) (HPC)
[4] = endpoint: median tumor weight change, dose: 75.0 mg/kg/injection, schedule: Q01DX001 (ip), vehicle: saline
[5] = endpoint: median tumor weight change, dose: 150.0 mg/kg/injection, schedule: Q01DX001 (ip), vehicle: saline
[6] = endpoint: median tumor weight change, dose: 300.0 mg/kg/injection, schedule: Q01DX001 (ip), vehicle: saline
[7] = endpoint: median tumor weight change, dose: 600.0 mg/kg/injection, schedule: Q01DX001 (ip), vehicle: saline
[8] = endpoint: median tumor weight change, dose: 1200.0 mg/kg/injection, schedule: Q01DX001 (ip), vehicle: saline
[9] = endpoint: median tumor weight change, dose: 125.0 mg/kg/injection, schedule: Q01DX001 (ip), vehicle: saline with Tween-80
[10] = endpoint: median tumor weight change, dose: 250.0 mg/kg/injection, schedule: Q01DX001 (ip), vehicle: saline with Tween-80
[11] = endpoint: median tumor weight change, dose: 500.0 mg/kg/injection, schedule: Q01DX001 (ip), vehicle: saline with Tween-80

CC(=O)OCc1cc(=O)n(C)c2c3c4c(cc12)c(C)cc(=O)n4CO3
T/C (endpoint: median tumor weight (est.), dose: 6.25 mg/kg/injection, schedule: Q07DX005 (ip), vehicle: Klucel (hydroxypropylcellulose) (HPC)): 42 % of control | T/C (endpoint: median tumor weight (est.), dose: 12.5 mg/kg/injection, schedule: Q07DX005 (ip), vehicle: Klucel (hydroxypropylcellulose) (HPC)): 66 % of control and 78 % of control | T/C (endpoint: median tumor weight (est.), dose: 100.0 mg/kg/injection, schedule: Q07DX005 (ip), vehicle: Klucel (hydroxypropylcellulose) (HPC)): 19 % of control and 43 % of control | T/C (endpoint: median tumor weight (est.), dose: 200.0 mg/kg/injection, schedule: Q07DX005 (ip), vehicle: Klucel (hydroxypropylcellulose) (HPC)): 22 % of control and 26 % of control

CCCCCCCCCCS(=O)CC(CO)NC(=O)/C=C/c1c(C)[nH]c(=O)[nH]c1=O (stereo not given)
T/C (endpoint: median tumor weight (est.), dose: 0.75 mg/kg/injection, schedule: Q07DX005 (ip), vehicle: saline with Tween-80): 85 % of control | T/C (endpoint: median tumor weight (est.), dose: 1.5 mg/kg/injection, schedule: Q07DX005 (ip), vehicle: saline with Tween-80): 100 % of control and 106 % of control | T/C (endpoint: median tumor weight (est.), dose: 3.0 mg/kg/injection, schedule: Q07DX005 (ip), vehicle: saline with Tween-80): 124 % of control and 113 % of control | T/C (endpoint: median tumor weight (est.), dose: 6.0 mg/kg/injection, schedule: Q07DX005 (ip), vehicle: saline with Tween-80): 76 % of control | T/C (endpoint: median tumor weight (est.), dose: 12.0 mg/kg/injection, schedule: Q07DX005 (ip), vehicle: saline with Tween-80): 23 % of control | T/C (endpoint: median tumor weight (est.), dose: 48.0 mg/kg/injection, schedule: Q07DX005 (ip), vehicle: saline with Tween-80): 76 % of control

C=C1C(C)C2C(Cc3ccccc3)NC(=O)C23C(OC(C)=O)C=CC(C)(O)C(=O)C(C)C/C=C/C3C1O (stereo not given)
T/C (endpoint: median tumor weight (est.), dose: 0.62 mg/kg/injection, schedule: Q07DX005 (ip), vehicle: saline): 64 % of control | T/C (endpoint: median tumor weight (est.), dose: 1.25 mg/kg/injection, schedule: Q07DX005 (ip), vehicle: saline): 61 % of control | T/C (endpoint: median tumor weight (est.), dose: 2.5 mg/kg/injection, schedule: Q07DX005 (ip), vehicle: saline): 94 % of control | T/C (endpoint: median tumor weight (est.), dose: 5.0 mg/kg/injection, schedule: Q07DX005 (ip), vehicle: saline): 59 % of control | T/C (endpoint: median tumor weight (est.), dose: 10.0 mg/kg/injection, schedule: Q07DX005 (ip), vehicle: saline): 46 % of control

Clc1ccc(C(c2ccc(Cl)cc2)C(Cl)(Cl)Cl)cc1
T/C [1]: 106 % of control | T/C [2]: 84 % of control | T/C [3]: 123 % of control | T/C (endpoint: median tumor weight change, dose: 250.0 mg/kg/injection, schedule: Q01DX001 (ip), vehicle: Klucel (hydroxypropylcellulose) (HPC)): 80 % of control | T/C (endpoint: median tumor weight change, dose: 500.0 mg/kg/injection, schedule: Q01DX001 (ip), vehicle: Klucel (hydroxypropylcellulose) (HPC)): 59 % of control

O=C(O)CSc1nc(-c2ccccc2)c(-c2ccccc2)n1-c1ccccn1
T/C (endpoint: median tumor weight (est.), dose: 12.5 mg/kg/injection, schedule: Q07DX005 (ip), vehicle: water): 63 % of control and 72 % of control | T/C (endpoint: median tumor weight (est.), dose: 25.0 mg/kg/injection, schedule: Q07DX005 (ip), vehicle: water): 217 % of control and 78 % of control | T/C (endpoint: median tumor weight (est.), dose: 200.0 mg/kg/injection, schedule: Q07DX005 (ip), vehicle: water): 64 % of control

O=C(CC(=O)C(F)(F)F)c1csc2ccccc12
T/C [1]: 35 % of control | T/C [2]: 39 % of control | T/C [3]: 65 % of control

Cc1c[nH]c(=O)[nH]c1=O
T/C (endpoint: median tumor weight (est.), dose: 64.0 mg/kg/injection, schedule: Q07DX005 (ip), vehicle: Klucel (hydroxypropylcellulose) (HPC)): 214 % of control and 74 % of control | T/C (endpoint: median tumor weight (est.), dose: 128.0 mg/kg/injection, schedule: Q07DX005 (ip), vehicle: Klucel (hydroxypropylcellulose) (HPC)): 112 % of control and 118 % of control

O=CC(O)C(O)C(O)C(O)CO (stereo not given)
T/C [4]: 66 % of control | T/C [5]: 43 % of control | T/C [6]: 61 % of control | T/C [7]: 35 % of control | T/C [8]: 55 % of control

CC(Oc1ccccc1-c1ccccc1)C(=O)N(C)C (stereo not given)
T/C [9]: 70 % of control | T/C [10]: 89 % of control | T/C [11]: 95 % of control

[Cl][Pt+2][Cl].[NH-]C1CCC1.[NH2-]
T/C (endpoint: median tumor weight change, dose: 6.25 mg/kg/injection, schedule: Q01DX001 (ip), vehicle: suspension in saline): 96 % of control | T/C (endpoint: median tumor weight change, dose: 12.5 mg/kg/injection, schedule: Q01DX001 (ip), vehicle: suspension in saline): 99 % of control

COC1/C=C/O[C@@]2(C)Oc3c(C)c(O)c4c(O)c(cc(O)c4c3C2=O)NC(=O)/C(C)=C\C=C\[C@H](C)C(O)[C@@H](C)[C@@H](O)[C@@H](C)[C@H](OC(C)=O)[C@@H]1C (stereo not given in full)
T/C (endpoint: median tumor weight change, dose: 31.25 mg/kg/injection, schedule: Q01DX001 (ip), vehicle: saline with Tween-80): 87 % of control | T/C (endpoint: median tumor weight change, dose: 62.5 mg/kg/injection, schedule: Q01DX001 (ip), vehicle: saline with Tween-80): 82 % of control | T/C [9]: 98 % of control | T/C [10]: 153 % of control | T/C [11]: 83 % of control

O=P1(N(CCCl)CCCl)NCCCO1 (stereo not given)
T/C (endpoint: mean tumor weight, dose: 20.0 mg/kg/injection, schedule: Q01DX018 (ip), vehicle: saline): 8 % of control | T/C (endpoint: mean tumor weight, dose: 37.5 mg/kg/injection, schedule: Q07DX004 (ip), vehicle: saline): 3 % of control | T/C (endpoint: mean tumor weight, dose: 40.0 mg/kg/injection, schedule: Q01DX009 (ip), vehicle: saline): 4 % of control and 9 % of control | T/C (endpoint: mean tumor weight, dose: 50.0 mg/kg/injection, schedule: Q07DX004 (ip), vehicle: saline): 3 % of control | T/C (endpoint: median tumor weight (est.), dose: 10.0 mg/kg/injection, schedule: Q01DX005 (ip), vehicle: saline): 55 % of control | T/C (endpoint: median tumor weight (est.), dose: 20.0 mg/kg/injection, schedule: Q01DX005 (ip), vehicle: saline): 1 % of control | T/C (endpoint: median tumor weight (est.), dose: 25.0 mg/kg/injection, schedule: Q01DX005 (ip), vehicle: saline): 80 % of control | T/C (endpoint: median tumor weight (est.), dose: 37.5 mg/kg/injection, schedule: Q01DX005 (ip), vehicle: saline): 17 % of control | T/C (endpoint: median tumor weight (est.), dose: 37.5 mg/kg/injection, schedule: Q04DX005 (ip), vehicle: saline): 60 % of control | T/C (endpoint: median tumor weight (est.), dose: 40.0 mg/kg/injection, schedule: Q01DX005 (ip), vehicle: saline): 8 % of control | T/C (endpoint: median tumor weight (est.), dose: 50.0 mg/kg/injection, schedule: Q01DX005 (ip), vehicle: saline): 15 % of control | T/C (endpoint: median tumor weight (est.), dose: 50.0 mg/kg/injection, schedule: Q04DX005 (ip), vehicle: saline): 11 % of control | T/C (endpoint: median tumor weight (est.), dose: 50.0 mg/kg/injection, schedule: Q07DX005 (ip), vehicle: saline): 27 % of control | T/C (endpoint: median tumor weight (est.), dose: 67.0 mg/kg/injection, schedule: Q07DX005 (ip), vehicle: saline): 6 % of control | T/C (endpoint: median tumor weight (est.), dose: 75.0 mg/kg/injection, schedule: Q01DX005 (ip), vehicle: saline): 1 % of control | T/C (endpoint: median tumor weight (est.), dose: 75.0 mg/kg/injection, schedule: Q04DX005 (ip), vehicle: saline): 1 % of control | T/C (endpoint: median tumor weight (est.), dose: 75.0 mg/kg/injection, schedule: Q07DX005 (ip), vehicle: saline): 5 % of control | T/C (endpoint: median tumor weight (est.), dose: 80.0 mg/kg/injection, schedule: Q01DX005 (ip), vehicle: saline): 2 % of control | T/C (endpoint: median tumor weight (est.), dose: 100.0 mg/kg/injection, schedule: Q07DX005 (ip), vehicle: saline): 1 % of control | T/C (endpoint: median tumor weight (est.), dose: 111.0 mg/kg/injection, schedule: Q01DX001 (ip), vehicle: saline): 32 % of control | T/C (endpoint: median tumor weight (est.), dose: 167.0 mg/kg/injection, schedule: Q01DX001 (ip), vehicle: saline): 34 % of control | T/C (endpoint: median tumor weight (est.), dose: 250.0 mg/kg/injection, schedule: Q01DX001 (ip), vehicle: saline): 9 % of control | T/C (endpoint: median tumor weight change, dose: 25.0 mg/kg/injection, schedule: Q01DX001 (ip), vehicle: saline): 91 % of control | T/C (endpoint: median tumor weight change, dose: 50.0 mg/kg/injection, schedule: Q01DX001 (ip), vehicle: saline): 42 % of control and 62 % of control | T/C (endpoint: median tumor weight change, dose: 100.0 mg/kg/injection, schedule: Q01DX001 (ip), vehicle: saline): 5 % of control and 29 % of control | T/C (endpoint: median tumor weight change, dose: 400.0 mg/kg/injection, schedule: Q01DX001 (ip), vehicle: saline): -56 % of control

Cc1cc(NCCCN(C)C)c2ccc3c(ccc4c(NCCCN(C)C)cc(C)nc43)c2n1
T/C (endpoint: median tumor weight change, dose: 3.9 mg/kg/injection, schedule: Q01DX001 (ip), vehicle: saline): 87 % of control | T/C (endpoint: median tumor weight change, dose: 7.81 mg/kg/injection, schedule: Q01DX001 (ip), vehicle: saline): 98 % of control

CN1C(=O)NC(c2ccc(Cl)cc2)(c2ccc(Cl)cc2)C1=O
T/C (endpoint: median tumor weight change, dose: 125.0 mg/kg/injection, schedule: Q01DX001 (ip), vehicle: distilled water + Tween-80): 98 % of control | T/C (endpoint: median tumor weight change, dose: 250.0 mg/kg/injection, schedule: Q01DX001 (ip), vehicle: distilled water + Tween-80): 80 % of control | T/C (endpoint: median tumor weight change, dose: 500.0 mg/kg/injection, schedule: Q01DX001 (ip), vehicle: distilled water + Tween-80): 70 % of control | T/C (endpoint: median tumor weight change, dose: 1000.0 mg/kg/injection, schedule: Q01DX001 (ip), vehicle: distilled water + Tween-80): 40 % of control

OCC(O)C(O)C(O)C(O)CO (stereo not given)
T/C [4]: 20 % of control | T/C [5]: 40 % of control | T/C [6]: 39 % of control | T/C [7]: 32 % of control | T/C [8]: 45 % of control

Reference: PubChem BioAssay AID220 (DTP/NCI, 2004)
